Tests used:
[1] = test system: neurogenic pain model; settings: reported in WO2006085686; cited from earlier work
[2] = test system: Bennett neuropathic pain model; assay: Bennett (chronic constriction injury) neuropathic pain model, cold plate / cold allodynia test; type: in vivo, rat; settings: for latency time to removal of the affected paw from a cold plate, difference from vehicle control: dosed orally at 100 mg/kg, measured one hour later, cold allodynia test, ANOVA p<0.05 (FIG. 1)
Method: FIG. 1—Efficacy of PPARγ agonists Muraglitizar and Tesaglitizar in Bennett animal model for neuropathic pain. PPAR agonist compounds and positive control carbamazepine were dosed orally at 100 mg/kg, and pain behavior was measured one hour later with the cold allodynia test, as the latency time to removal of the affected paw from a cold plate. Statistical analysis of raw data was performed by analysis of variance (ANOVA), with significance threshold set at p<0.05. Analgesic activity was determined as a statistically significant increase in latency time to paw withdrawal in treated animals as compared to vehicle-treated animals. Comparisons for statistically significant differences in latency times were made between PPAR agonist compound-treated animals and vehicle controls, between carbamazepine-treated animals and vehicle controls, and between PPAR agonist compound-treated animals and carbamazepine-treated animals from the same experiment. All statistically significant differences between compared groups are indicated by the brackets, with *=p<0.05, and **=p<0.001.
FIG. 3—Effect of carbamazepine (+ control) and 3-(2,4-dichlorobenzyl)-2-methyl-N-(pentylsulfonyl)-3H-benzimidazole-5-carboxamide (“Atx” in Figure) on the latency to lift paw from the cold plate 60 min following compound injection, in rats with the Bennett model of neuropathic pain. Data represent mean±SEM. Statistical analysis of data as for FIG. 1; *=p<0.05.
These models are based on three surgical procedures: (i) the spinal nerve ligation (SNL) [Kim, S, and J. Chung, An experimental model for peripheral neuropathy produced by segmental spinal nerve ligation in the rat. Pain, 1992. 50: p. 355-363]; (ii) the partial sciatic nerve lesion (Seltzer) [Seltzer, Z., R. Dubner, and Y. Shir, A novel behavioral model of neuropathic pain disorders produced in rats by partial sciatic nerve injury. Pain, 1990. 43: p. 205-218]; (iii) and the chronic constriction injury [Bennett, G. and Y. Xie, A peripheral mononeuropathy in rat that produces disorders of pain sensation like those seen in man. Pain, 1988. 33: p. 87-107]. The Bennett model was used, as described below.
Young adult, male Sprague Dawley rats (200-250 g) from Harlan were used. Upon receipt, animals were assigned unique identification numbers (tail marked) and housed 2-3 per cage in suspended polycarbonate rat cages with filter paper covering mesh shelf. Rats were acclimated for up to 7 days prior to surgery. […]
The apparatus consists of a cold plate (Ugo Basile Hot/Cold Plate) measuring 25 (w)×37 (d)×16 (h) cm with a 10 cm thick aluminum circular plate. […] Baseline responses were measured on the day prior to drug administration. Each animal was tested by placing it on the cold plate (set to 4 C) and the latency of paw withdrawal was recorded. […]

[3] = test system: type 2 diabetes; settings: Phase II; quoted from Meinke et al., Annual Reports in Medicinal Chemistry (2006); cited from earlier work

O=C(Nc1ccccc1)c1cc([N+](=O)[O-])ccc1Cl [GW9662, 2-chloro-5-nitro-N-phenylbenzamide]
activity in a neurogenic pain model [1]: demonstrates activity in a neurogenic pain model

COc1ccc(OC(=O)N(CC(=O)O)Cc2ccc(OCCc3nc(-c4ccccc4)oc3C)cc2)cc1 [Muraglitazar]
latency time to removal of the affected paw from a cold plate, difference from vehicle control [2]: neither of Muraglitazar or Tesaglitazar showed any statistically significant difference from a vehicle control

CCCCCS(=O)(=O)NC(=O)c1ccc2nc(C)n(Cc3ccc(Cl)cc3Cl)c2c1 [Atx, 3-(2,4-dichlorobenzyl)-2-methyl-N-(pentylsulfonyl)-3H-benzimidazole-5-carboxamide]
advantage for type 2 diabetes in clinical trials [3]: no advantage [for type 2 diabetes] was demonstrated in clinical trials
latency to lift paw from the cold plate, analgesic activity compared to carbamazepine (+ control) ([2]; 60 min following compound injection, rats with the Bennett model (FIG. 3)): not significantly different from carbamazepine
latency to lift paw from the cold plate, analgesic activity compared to vehicle ([2]; 60 min following compound injection, rats with the Bennett model, p<0.05 (FIG. 3)): analgesic activity which is significantly greater than vehicle alone

CCO[C@@H](Cc1ccc(OCCc2ccc(OS(C)(=O)=O)cc2)cc1)C(=O)O [Tesaglitazar]
latency time to removal of the affected paw from a cold plate, difference from vehicle control [2]: neither of Muraglitazar or Tesaglitazar showed any statistically significant difference from a vehicle control
